Laboratory results as given in ChEMBL document CHEMBL4507300 (2021).

Columns and labels:
[1] = molecular target: Mitogen-activated protein kinase 8 (Homo sapiens) (UniProt P45983); settings: Compound concentration 1000.0 nM
[2] = molecular target: Atypical kinase COQ8A, mitochondrial (Homo sapiens) (UniProt Q8NI60); settings: Compound concentration 1000.0 nM
[3] = molecular target: cAMP-dependent protein kinase catalytic subunit PRKX (Homo sapiens) (UniProt P51817); settings: Compound concentration 1000.0 nM
[4] = molecular target: Fibroblast growth factor receptor 1 (Homo sapiens) (UniProt P11362); settings: Compound concentration 1000.0 nM
[5] = molecular target: Mitogen-activated protein kinase 10 (Homo sapiens) (UniProt P53779); settings: Compound concentration 1000.0 nM
[6] = molecular target: Serine/threonine-protein kinase SBK1 (Homo sapiens) (UniProt Q52WX2); settings: Compound concentration 1000.0 nM
[7] = molecular target: Mitogen-activated protein kinase 4 (Homo sapiens) (UniProt P31152); settings: Compound concentration 1000.0 nM
[8] = molecular target: Serine/threonine-protein kinase 32C (Homo sapiens) (UniProt Q86UX6); settings: Compound concentration 1000.0 nM
[9] = tested on: Mast/stem cell growth factor receptor Kit (Homo sapiens), P10721 [D816H]; settings: Compound concentration 1000.0 nM
[10] = molecular target: Receptor-interacting serine/threonine-protein kinase 1 (Homo sapiens) (UniProt Q13546); settings: Compound concentration 1000.0 nM
[11] = molecular target: Ephrin type-A receptor 4 (Homo sapiens) (UniProt P54764); settings: Compound concentration 1000.0 nM
[12] = molecular target: Angiopoietin-1 receptor (Homo sapiens) (UniProt Q02763); settings: Compound concentration 1000.0 nM
[13] = molecular target: Tyrosine-protein kinase Blk (Homo sapiens) (UniProt P51451); settings: Compound concentration 1000.0 nM
[14] = molecular target: Phosphatidylinositol 3-kinase C2 domain-containing subunit gamma (Homo sapiens) (UniProt O75747); settings: Compound concentration 1000.0 nM
[15] = molecular target: Protein-tyrosine kinase 6 (Homo sapiens) (UniProt Q13882); settings: Compound concentration 1000.0 nM
[16] = molecular target: Mitogen-activated protein kinase kinase kinase 13 (Homo sapiens) (UniProt O43283); settings: Compound concentration 1000.0 nM
[17] = molecular target: Cyclin-dependent kinase 16 (Homo sapiens) (UniProt Q00536); settings: Compound concentration 1000.0 nM
[18] = tested on: Receptor-type tyrosine-protein kinase FLT3 (Homo sapiens), P36888 [D835Y]; settings: Compound concentration 1000.0 nM
[19] = molecular target: MAP/microtubule affinity-regulating kinase 4 (Homo sapiens) (UniProt Q96L34); settings: Compound concentration 1000.0 nM
[20] = tested on: Epidermal growth factor receptor (Homo sapiens), P00533 [L858R]; settings: Compound concentration 1000.0 nM
[21] = molecular target: Cyclin-dependent kinase 13 (Homo sapiens) (UniProt Q14004); settings: Compound concentration 1000.0 nM
[22] = molecular target: RAC-beta serine/threonine-protein kinase (Homo sapiens) (UniProt P31751); settings: Compound concentration 1000.0 nM
[23] = molecular target: Tyrosine-protein kinase ZAP-70 (Homo sapiens) (UniProt P43403); settings: Compound concentration 1000.0 nM
[24] = molecular target: Testis-specific serine/threonine-protein kinase 3 (Homo sapiens) (UniProt Q96PN8); settings: Compound concentration 1000.0 nM
[25] = molecular target: Ephrin type-B receptor 3 (Homo sapiens) (UniProt P54753); settings: Compound concentration 1000.0 nM
[26] = tested on: Tyrosine-protein kinase ABL1 (Homo sapiens), P00519 [H396P]; settings: Compound concentration 1000.0 nM
[27] = molecular target: Serine/threonine-protein kinase pim-2 (Homo sapiens) (UniProt Q9P1W9); settings: Compound concentration 1000.0 nM
[28] = molecular target: Serine/threonine-protein kinase 17B (Homo sapiens) (UniProt O94768); settings: Compound concentration 1000.0 nM
[29] = molecular target: RAF proto-oncogene serine/threonine-protein kinase (Homo sapiens) (UniProt P04049); settings: Compound concentration 1000.0 nM
[30] = molecular target: Serine/threonine-protein kinase MRCK alpha (Homo sapiens) (UniProt Q5VT25); settings: Compound concentration 1000.0 nM
[31] = molecular target: Alpha-2B adrenergic receptor (Homo sapiens) (UniProt P18089); settings: Compound concentration 10.0 uM
[32] = molecular target: D(3) dopamine receptor (Homo sapiens) (UniProt P35462); settings: Compound concentration 10.0 uM
[33] = molecular target: Serine/threonine-protein kinase PAK 4 (Homo sapiens) (UniProt O96013); settings: Compound concentration 1000.0 nM
[34] = molecular target: Cyclin-dependent kinase 7 (Homo sapiens) (UniProt P50613); settings: Compound concentration 1000.0 nM
[35] = tested on: Epidermal growth factor receptor (Homo sapiens), P00533 [UNDEFINED MUTATION]; settings: Compound concentration 1000.0 nM
[36] = molecular target: Cyclin-dependent kinase 14 (Homo sapiens) (UniProt O94921); settings: Compound concentration 1000.0 nM
[37] = molecular target: Death-associated protein kinase 1 (Homo sapiens) (UniProt P53355); settings: Compound concentration 1000.0 nM
[38] = molecular target: Mitogen-activated protein kinase 12 (Homo sapiens) (UniProt P53778); settings: Compound concentration 1000.0 nM
[39] = tested on: Tyrosine-protein kinase ABL1 (Homo sapiens), P00519 [Q252H]; settings: Compound concentration 1000.0 nM
[40] = molecular target: Serine/threonine-protein kinase Chk1 (Homo sapiens) (UniProt O14757); settings: Compound concentration 1000.0 nM
[41] = molecular target: Sodium-dependent serotonin transporter (Homo sapiens, UniProt P31645); settings: Compound concentration 10.0 uM
[42] = molecular target: D(1B) dopamine receptor (Homo sapiens) (UniProt P21918); settings: Compound concentration 10.0 uM
[43] = molecular target: Ribosomal protein S6 kinase alpha-4 (Homo sapiens) (UniProt O75676); settings: Compound concentration 1000.0 nM
[44] = tested on: Phosphatidylinositol 4,5-bisphosphate 3-kinase catalytic subunit alpha isoform (Homo sapiens), P42336 [C420R]; settings: Compound concentration 1000.0 nM
[45] = tested on: Receptor-type tyrosine-protein kinase FLT3 (Homo sapiens), P36888 [UNDEFINED MUTATION]; settings: Compound concentration 1000.0 nM

Ephrin type-B receptor 3 (Homo sapiens), sequence (P54753 whole entry): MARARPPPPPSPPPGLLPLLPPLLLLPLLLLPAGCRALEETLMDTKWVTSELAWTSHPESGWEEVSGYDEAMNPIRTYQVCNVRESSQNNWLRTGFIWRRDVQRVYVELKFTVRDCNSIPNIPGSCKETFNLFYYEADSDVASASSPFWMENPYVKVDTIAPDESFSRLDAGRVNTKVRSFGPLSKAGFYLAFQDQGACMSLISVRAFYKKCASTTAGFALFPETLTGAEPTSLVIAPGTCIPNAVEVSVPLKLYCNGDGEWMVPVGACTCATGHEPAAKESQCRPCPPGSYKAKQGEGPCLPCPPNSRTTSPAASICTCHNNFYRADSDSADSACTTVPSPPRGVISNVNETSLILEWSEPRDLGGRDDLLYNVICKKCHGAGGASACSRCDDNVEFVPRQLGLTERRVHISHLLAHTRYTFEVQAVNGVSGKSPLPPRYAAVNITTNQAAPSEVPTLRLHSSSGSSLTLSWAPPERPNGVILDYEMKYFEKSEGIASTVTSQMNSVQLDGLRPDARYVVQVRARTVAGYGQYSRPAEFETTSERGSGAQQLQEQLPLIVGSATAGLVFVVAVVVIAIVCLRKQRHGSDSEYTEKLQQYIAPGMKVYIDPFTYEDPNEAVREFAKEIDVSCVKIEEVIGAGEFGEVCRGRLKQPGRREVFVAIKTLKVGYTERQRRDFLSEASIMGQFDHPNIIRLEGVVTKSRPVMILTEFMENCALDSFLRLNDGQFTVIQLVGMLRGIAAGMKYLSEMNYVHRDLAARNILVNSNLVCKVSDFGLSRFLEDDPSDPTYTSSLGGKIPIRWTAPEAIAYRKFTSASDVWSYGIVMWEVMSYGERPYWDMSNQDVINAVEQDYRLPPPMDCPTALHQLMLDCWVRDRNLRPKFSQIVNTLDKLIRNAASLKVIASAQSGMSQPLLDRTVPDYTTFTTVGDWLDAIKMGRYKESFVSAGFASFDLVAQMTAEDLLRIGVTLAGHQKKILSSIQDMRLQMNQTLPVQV
Tyrosine-protein kinase ZAP-70 (Homo sapiens), sequence (P43403 whole entry): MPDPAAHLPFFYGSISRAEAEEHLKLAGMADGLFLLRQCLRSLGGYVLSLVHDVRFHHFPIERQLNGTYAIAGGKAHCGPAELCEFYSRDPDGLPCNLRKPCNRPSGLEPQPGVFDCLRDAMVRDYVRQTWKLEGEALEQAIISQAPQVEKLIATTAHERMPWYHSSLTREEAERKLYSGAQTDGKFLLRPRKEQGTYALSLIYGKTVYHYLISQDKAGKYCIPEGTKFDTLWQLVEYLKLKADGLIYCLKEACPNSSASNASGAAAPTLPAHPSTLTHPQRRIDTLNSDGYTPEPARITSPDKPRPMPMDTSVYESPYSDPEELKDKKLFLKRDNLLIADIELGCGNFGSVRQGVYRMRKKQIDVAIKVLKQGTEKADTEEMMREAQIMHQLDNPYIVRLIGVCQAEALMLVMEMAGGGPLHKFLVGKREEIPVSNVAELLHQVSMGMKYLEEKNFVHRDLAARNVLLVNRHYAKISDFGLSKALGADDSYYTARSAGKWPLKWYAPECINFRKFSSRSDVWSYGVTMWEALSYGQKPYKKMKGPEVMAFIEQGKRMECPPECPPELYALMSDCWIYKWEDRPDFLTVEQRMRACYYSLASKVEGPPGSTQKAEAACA
Cyclin-dependent kinase 7 (Homo sapiens), sequence (P50613 whole entry): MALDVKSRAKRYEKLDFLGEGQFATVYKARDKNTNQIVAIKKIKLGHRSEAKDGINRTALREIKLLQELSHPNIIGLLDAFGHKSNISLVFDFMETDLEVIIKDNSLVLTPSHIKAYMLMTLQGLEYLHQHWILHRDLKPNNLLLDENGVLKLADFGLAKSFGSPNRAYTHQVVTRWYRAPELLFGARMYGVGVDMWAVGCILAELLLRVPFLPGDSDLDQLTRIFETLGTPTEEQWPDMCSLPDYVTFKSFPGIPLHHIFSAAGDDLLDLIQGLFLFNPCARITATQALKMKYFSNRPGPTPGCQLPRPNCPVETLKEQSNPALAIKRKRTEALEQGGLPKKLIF
RAC-beta serine/threonine-protein kinase (Homo sapiens), sequence (P31751 whole entry): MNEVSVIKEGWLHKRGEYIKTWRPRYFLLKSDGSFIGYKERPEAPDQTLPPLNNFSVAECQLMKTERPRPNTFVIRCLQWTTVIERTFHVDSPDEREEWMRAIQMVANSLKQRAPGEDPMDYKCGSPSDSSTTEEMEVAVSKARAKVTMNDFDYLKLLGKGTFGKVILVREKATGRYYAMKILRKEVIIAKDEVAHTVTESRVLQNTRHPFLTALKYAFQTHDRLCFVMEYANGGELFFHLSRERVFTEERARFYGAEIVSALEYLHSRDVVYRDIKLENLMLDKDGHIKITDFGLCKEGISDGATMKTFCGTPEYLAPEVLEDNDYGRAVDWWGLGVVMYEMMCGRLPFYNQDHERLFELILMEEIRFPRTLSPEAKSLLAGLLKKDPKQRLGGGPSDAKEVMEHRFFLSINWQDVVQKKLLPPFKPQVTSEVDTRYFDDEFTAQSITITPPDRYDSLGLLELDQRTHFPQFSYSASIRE
Phosphatidylinositol 4,5-bisphosphate 3-kinase catalytic subunit alpha isoform (Homo sapiens), P42336 [C420R], sequence (P42336 whole entry C420R, canonical isoform): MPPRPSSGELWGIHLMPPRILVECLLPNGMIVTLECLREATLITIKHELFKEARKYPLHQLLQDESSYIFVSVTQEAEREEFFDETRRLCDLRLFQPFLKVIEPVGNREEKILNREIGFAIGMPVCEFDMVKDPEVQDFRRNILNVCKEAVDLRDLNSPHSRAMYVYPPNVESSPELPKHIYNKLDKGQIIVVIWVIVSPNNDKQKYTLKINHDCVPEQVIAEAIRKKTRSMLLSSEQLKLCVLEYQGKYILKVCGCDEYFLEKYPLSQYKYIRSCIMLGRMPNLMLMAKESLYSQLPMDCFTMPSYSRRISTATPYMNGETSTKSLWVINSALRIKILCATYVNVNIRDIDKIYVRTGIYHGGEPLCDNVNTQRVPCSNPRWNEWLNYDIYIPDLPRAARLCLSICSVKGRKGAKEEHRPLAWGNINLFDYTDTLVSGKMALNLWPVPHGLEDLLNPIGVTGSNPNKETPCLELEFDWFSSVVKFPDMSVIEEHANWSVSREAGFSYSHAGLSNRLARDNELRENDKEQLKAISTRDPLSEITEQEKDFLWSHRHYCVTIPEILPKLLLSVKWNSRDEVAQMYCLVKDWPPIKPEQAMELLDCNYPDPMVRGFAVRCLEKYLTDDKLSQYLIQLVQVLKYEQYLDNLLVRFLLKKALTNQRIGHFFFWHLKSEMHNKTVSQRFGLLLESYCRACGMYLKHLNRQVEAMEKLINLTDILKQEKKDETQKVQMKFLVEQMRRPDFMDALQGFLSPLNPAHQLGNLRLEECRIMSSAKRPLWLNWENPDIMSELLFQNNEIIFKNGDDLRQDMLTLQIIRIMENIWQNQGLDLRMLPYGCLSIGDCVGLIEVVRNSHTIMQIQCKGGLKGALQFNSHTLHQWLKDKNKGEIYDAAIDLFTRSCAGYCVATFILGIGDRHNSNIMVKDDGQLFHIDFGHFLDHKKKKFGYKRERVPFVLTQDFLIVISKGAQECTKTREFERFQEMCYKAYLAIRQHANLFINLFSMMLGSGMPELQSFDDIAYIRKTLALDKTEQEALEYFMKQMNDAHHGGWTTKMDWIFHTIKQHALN
Tyrosine-protein kinase Blk (Homo sapiens), sequence (P51451 2-505 limits assumed): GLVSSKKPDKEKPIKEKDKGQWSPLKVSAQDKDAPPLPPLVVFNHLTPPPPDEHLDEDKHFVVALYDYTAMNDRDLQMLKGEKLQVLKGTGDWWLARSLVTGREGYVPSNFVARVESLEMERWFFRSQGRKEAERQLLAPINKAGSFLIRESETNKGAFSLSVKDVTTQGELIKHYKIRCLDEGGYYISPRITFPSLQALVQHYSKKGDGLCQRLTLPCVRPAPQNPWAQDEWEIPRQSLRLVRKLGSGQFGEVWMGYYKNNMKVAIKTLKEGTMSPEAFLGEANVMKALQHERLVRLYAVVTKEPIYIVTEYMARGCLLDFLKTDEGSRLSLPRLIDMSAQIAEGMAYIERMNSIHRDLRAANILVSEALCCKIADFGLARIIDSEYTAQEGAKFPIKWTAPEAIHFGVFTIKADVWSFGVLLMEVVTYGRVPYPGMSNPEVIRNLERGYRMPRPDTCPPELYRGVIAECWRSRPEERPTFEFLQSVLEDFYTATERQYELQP
Cyclin-dependent kinase 14 (Homo sapiens), sequence (O94921 whole entry): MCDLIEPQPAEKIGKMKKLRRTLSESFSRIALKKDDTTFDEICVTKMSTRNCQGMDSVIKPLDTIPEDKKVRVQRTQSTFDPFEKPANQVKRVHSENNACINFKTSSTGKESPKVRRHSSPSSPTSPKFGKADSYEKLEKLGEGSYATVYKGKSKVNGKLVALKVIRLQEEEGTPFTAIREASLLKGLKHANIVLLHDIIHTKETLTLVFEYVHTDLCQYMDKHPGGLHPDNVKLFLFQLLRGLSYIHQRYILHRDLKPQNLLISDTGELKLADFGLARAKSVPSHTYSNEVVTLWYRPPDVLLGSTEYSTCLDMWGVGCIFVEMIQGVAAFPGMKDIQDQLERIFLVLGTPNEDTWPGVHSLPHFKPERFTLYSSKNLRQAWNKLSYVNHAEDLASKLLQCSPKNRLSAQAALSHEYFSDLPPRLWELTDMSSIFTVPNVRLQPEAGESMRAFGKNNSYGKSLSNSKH
D(3) dopamine receptor (Homo sapiens), sequence (P35462 whole entry): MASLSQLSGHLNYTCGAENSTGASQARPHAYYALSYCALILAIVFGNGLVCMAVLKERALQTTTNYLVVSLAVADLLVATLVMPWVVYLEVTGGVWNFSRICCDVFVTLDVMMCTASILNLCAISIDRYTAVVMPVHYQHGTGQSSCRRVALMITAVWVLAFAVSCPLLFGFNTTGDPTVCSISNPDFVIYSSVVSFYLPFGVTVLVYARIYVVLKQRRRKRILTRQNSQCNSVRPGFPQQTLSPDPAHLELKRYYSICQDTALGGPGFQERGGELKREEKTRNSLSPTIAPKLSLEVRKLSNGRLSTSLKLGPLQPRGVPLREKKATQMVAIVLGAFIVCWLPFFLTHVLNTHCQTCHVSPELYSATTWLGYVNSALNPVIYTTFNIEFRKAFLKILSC

COc1cccc(CNC(=O)c2nc3scc(COCc4ccc(C(=O)O)cc4)c3c(=O)[nH]2)c1 [T-26c]
inactive: residual activity [1] 100% | residual activity [2] 100% | residual activity [3] 100% | residual activity [4] 86.5% | residual activity [5] 76.6% | residual activity [6] 53.7% | residual activity [7] 80% | residual activity [8] 89.6% | residual activity [9] 59% | residual activity [10] 97.4% | residual activity [11] 91.1% | residual activity [12] 100% | residual activity [13] 100% | residual activity [14] 100% | residual activity [15] 82.5% | residual activity [16] 61.5% | residual activity [17] 91.9% | residual activity [18] 94.3% | residual activity [19] 89.2% | residual activity [20] 88.3% | residual activity [21] 67.6% | residual activity [22] 93.3% | residual activity [23] 67.1% | residual activity [24] 81.4% | residual activity [25] 85.4% | residual activity [26] 83.6% | residual activity [27] 100% | residual activity [28] 94.4% | residual activity [29] 85.6% | residual activity [30] 100% | inhibition [31] 11% | inhibition [32] 10.5% | residual activity [33] 100% | residual activity [34] 80.5% | residual activity [35] 80.4% | residual activity [36] 100% | residual activity [37] 100% | residual activity [38] 92.1% | residual activity [39] 86.4% | residual activity [40] 95.5% | inhibition [41] -3.64% | inhibition [42] 11.9% | residual activity [43] 82.3% | residual activity [44] 100% | residual activity [45] 58.4%
